In article PMC12221116, “Novel Quinazolinones Active against Multidrug‐Resistant Mycobacterium Tuberculosis: Synthesis, Antimicrobial Evaluation, and in Silico Exploration of Penicillin‐Binding Protein 1A as a Potential Target” (Chemmedchem, 2025):
Values after ≈ are worked out from the molar mass of the structure shown. Where two headings read alike, the source gives them in different places.

How the values were obtained:
[1] = test system: Mtb H37Rv; experiment: Microplate Alamar Blue assay, MIC; format: cell-based, Mycobacterium tuberculosis; details: for MIC: Mycobacterium tuberculosis, H37RV
[2] = test system: Mtb H37Ra; experiment: Microdilution broth resazurin assay, MIC; format: cell-based, Mycobacterium tuberculosis
[3] = test system: M. kansasii; experiment: Microplate Alamar Blue assay, MIC; format: cell-based, Mycobacterium kansasii; details: for MIC: Mycobacterium kansasii, read-out: Antimycobacterial Activity MIC M. kans.
[4] = test system: M. avium; experiment: Microdilution broth resazurin assay, MIC; format: cell-based, Mycobacterium avium
[5] = test system: M. smegmatis; experiment: Microdilution broth resazurin assay, MIC; format: cell-based, Mycolicibacterium smegmatis
[6] = test system: M. aurum; experiment: Microdilution broth resazurin assay, MIC; format: cell-based, Mycolicibacterium aurum
[7] = Microplate Alamar Blue assay, read-out: Antimycobacterial Activity MIC Mtb H37Rv
[8] = read-out: Antimycobacterial Activity MIC Mtb H37Rv, Table S5 matching pairs series A and B
[9] = Mycobacterium tuberculosis, H37RA, read-out: Antimycobacterial Activity MIC Mtb H37Ra
[10] = Table S5 matching pairs series A and B
[11] = Mycobacterium avium, read-out: Antimycobacterial Activity MIC M. avium
[12] = Mycolicibacterium smegmatis; read-out: Antimycobacterial Activity MIC M. smeg.
[13] = Mycolicibacterium aurum, read-out: Antimycobacterial Activity MIC M. aurum
[14] = Mycobacterium tuberculosis, H37RA; read-out: Antimycobacterial Activity MIC Mtb H37Ra
[15] = Mycolicibacterium smegmatis, read-out: Antimycobacterial Activity MIC M. smeg.

For `Cc1nc2ccccc2c(=O)n1Cc1ccc2ccccc2c1` [Compound 8], the MIC [1, 7] was > 100 µg/mL, the MIC [1, 8] was > 100 µg/mL and the “Antimycobacterial Activity MIC Mtb H37Ra” value [2] was ≥250 µg/mL. The MIC [2, 9] was ≥ 250 µg/mL, the MIC [3] was 50 µg/mL (≈ 166 µM) and the “Antimycobacterial Activity MIC M. kans.” value [3, 10] was 50 µg/mL. The “Antimycobacterial Activity MIC M. avium” value [4] was 62.5 µg/mL, the MIC [4, 11] was 62.5 µg/mL (≈ 208 µM) and the MIC [5, 12] was ≥ 500 µg/mL. The “Antimycobacterial Activity MIC M. smeg.” value [5, 10] was ≥ 500 µg/mL, the “Antimycobacterial Activity MIC M. aurum” value [6] was 62.5 µg/mL and the MIC [6, 13] was 62.5 µg/mL (≈ 208 µM).
`Cc1cccc(/C=N/n2c(C)nc3cc(Cl)ccc3c2=O)c1` [Compound 47] was tested, and the MIC [1, 7] was > 25 µg/mL, the MIC [2, 14] was ≥ 31.2 µg/mL and the MIC [3] was > 25 µg/mL. The MIC [4, 11] was ≥ 31.2 µg/mL, the MIC [5, 15] was ≥ 31.2 µg/mL and the MIC [6, 13] was ≥ 31.2 µg/mL.
In the case of `Cc1nc2cc(Cl)ccc2c(=O)n1/N=C/c1cccc(Cl)c1` [Compound 50], the MIC [1, 7] is reported as > 50 µg/mL, the MIC [2, 14] is reported as ≥ 62.5 µg/mL and the MIC [3] is reported as > 50 µg/mL. The MIC [4, 11] was ≥ 62.5 µg/mL, the MIC [5, 15] was ≥ 62.5 µg/mL and the MIC [6, 13] was ≥ 62.5 µg/mL.
With `Cc1nc2cc(Cl)ccc2c(=O)n1Cc1cccc(C(=O)O)c1` [Compound 12] the MIC [1, 7] was > 100 µg/mL, the MIC [2, 14] was ≥ 62.5 µg/mL and the MIC [3] was > 100 µg/mL. For the same compound, the MIC [4, 11] was ≥ 62.5 µg/mL, the MIC [5, 15] was ≥ 62.5 µg/mL and the MIC [6, 13] was ≥ 62.5 µg/mL.
For `COc1cc(/C=N/n2c(C)nc3cc(Cl)ccc3c2=O)ccc1O` [Compound 34], the MIC [1, 7] was > 100 µg/mL, the MIC [2, 14] was ≥ 62.5 µg/mL and the MIC [3] was > 100 µg/mL. The MIC [4, 11] was ≥ 62.5 µg/mL, the MIC [5, 15] was ≥ 62.5 µg/mL and the MIC [6, 13] was ≥ 62.5 µg/mL.
`Cc1nc2cc(Cl)ccc2c(=O)n1/N=C/c1cccc(O)c1` [Compound 36] was tested, and the MIC [1, 7] was > 100 µg/mL, the MIC [2, 14] was ≥ 62.5 µg/mL and the MIC [3] was > 100 µg/mL. For the same compound, the MIC [4, 11] was ≥ 62.5 µg/mL, the MIC [5, 15] was ≥ 62.5 µg/mL and the MIC [6, 13] was ≥ 62.5 µg/mL.
`Cc1nc2cc(Cl)ccc2c(=O)n1/N=C/c1cccc(Br)c1` [Compound 53, (E)-7-Chloro-3-((3-bromobenzylidene)amino)-2-methylquinazolin-4(3H)-one] was tested, and the MIC [1, 7] was > 25 µg/mL, the MIC [2, 14] was ≥ 31.2 µg/mL and the MIC [3] was > 25 µg/mL. The MIC [4, 11] was ≥ 31.2 µg/mL, the MIC [5, 15] was ≥ 31.2 µg/mL and the MIC [6, 13] was ≥ 31.2 µg/mL.
With `Cc1nc2cc(Cl)ccc2c(=O)n1/N=C/c1ccc(Cl)cc1` [Compound 51] the MIC [1, 7] was > 25 µg/mL, the MIC [2, 14] was ≥ 15.6 µg/mL and the MIC [3] was > 25 µg/mL. For the same compound, the MIC [4, 11] was ≥ 15.6 µg/mL, the MIC [5, 15] was ≥ 15.6 µg/mL and the MIC [6, 13] was ≥ 15.6 µg/mL.
`COc1cccc(/C=N/n2c(C)nc3cc(Cl)ccc3c2=O)c1` [Compound 39] was tested, and the MIC [1, 7] was > 50 µg/mL, the MIC [2, 14] was ≥ 62.5 µg/mL and the MIC [3] was > 50 µg/mL. The MIC [4, 11] was ≥ 62.5 µg/mL, the MIC [5, 15] was ≥ 62.5 µg/mL and the MIC [6, 13] was ≥ 62.5 µg/mL.
With `Cc1nc2ccccc2c(=O)n1Cc1cccc(F)c1` [Compound 4] the “Antimycobacterial Activity MIC Mtb H37Rv” value ([1]; Microplate Alamar Blue assay) was 100 µg/mL, the “Antimycobacterial Activity MIC Mtb H37Ra” value [2] was 250 µg/mL and the “Antimycobacterial Activity MIC M. kans.” value [3] was 50 µg/mL. For the same compound, the “Antimycobacterial Activity MIC M. avium” value [4] was 125 µg/mL, the “Antimycobacterial Activity MIC M. smeg.” value [5] was 250 µg/mL and the “Antimycobacterial Activity MIC M. aurum” value [6] was 500 µg/mL.
`Cc1nc2cc(Cl)ccc2c(=O)n1/N=C/c1ccc([N+](=O)[O-])cc1` [Compound 28] was tested, and the MIC [1, 7] was > 25 µg/mL, the MIC [2, 14] was ≥ 31.2 µg/mL and the MIC [3] was > 25 µg/mL. For the same compound, the MIC [4, 11] was ≥ 31.2 µg/mL, the MIC [5, 15] was ≥ 31.2 µg/mL and the MIC [6, 13] was ≥ 31.2 µg/mL.
`Cc1nc2ccccc2c(=O)n1Cc1ccc(C(F)(F)F)cc1` [Compound 7] was tested, and the “Antimycobacterial Activity MIC Mtb H37Rv” value ([1]; Microplate Alamar Blue assay) was >100 µg/mL, the “Antimycobacterial Activity MIC Mtb H37Ra” value [2] was 62.5 µg/mL and the “Antimycobacterial Activity MIC Mtb H37Ra” value [2, 10] was 62.5 µg/mL. For the same compound, the “Antimycobacterial Activity MIC M. kans.” value [3] was >100 µg/mL, the “Antimycobacterial Activity MIC M. avium” value [4] was 125 µg/mL and the “Antimycobacterial Activity MIC M. avium” value [4, 10] was 125 µg/mL. The “Antimycobacterial Activity MIC M. smeg.” value [5] was 250 µg/mL, the “Antimycobacterial Activity MIC M. smeg.” value [5, 10] was 250 µg/mL and the “Antimycobacterial Activity MIC M. aurum” value [6] was 125 µg/mL. The “Antimycobacterial Activity MIC M. aurum” value [6, 10] was 125 µg/mL.
For `Cc1nc2cc(Cl)ccc2c(=O)n1/N=C/c1ccncc1` [Compound 31], the MIC [1, 7] was > 25 µg/mL, the MIC [2, 14] was ≥ 31.2 µg/mL and the MIC [3] was > 25 µg/mL. The MIC [4, 11] was ≥ 31.2 µg/mL, the MIC [5, 15] was ≥ 31.2 µg/mL and the MIC [6, 13] was ≥ 31.2 µg/mL.
In the case of `Cc1ccccc1Cn1c(C)nc2cc(Cl)ccc2c1=O` [Compound 20], the MIC [1, 7] is reported as > 100 µg/mL, the MIC [1, 8] is reported as > 100 µg/mL and the “Antimycobacterial Activity MIC Mtb H37Ra” value [2] is reported as ≥250 µg/mL. The MIC [2, 9] was ≥ 250 µg/mL, the MIC [3] was > 100 µg/mL and the MIC ([4]; Mycobacterium avium; read-out: Antimycobacterial Activity MIC M. avium) was ≥ 250 µg/mL. The “Antimycobacterial Activity MIC M. avium” value [4, 10] was ≥ 250 µg/mL, the MIC [5, 12] was ≥ 250 µg/mL and the “Antimycobacterial Activity MIC M. smeg.” value [5, 10] was ≥ 250 µg/mL. The MIC ([6]; Mycolicibacterium aurum; read-out: Antimycobacterial Activity MIC M. aurum) was ≥ 250 µg/mL and the “Antimycobacterial Activity MIC M. aurum” value [6, 10] was ≥ 250 µg/mL.
In the case of `Cc1ccc(/C=N/n2c(C)nc3cc(Cl)ccc3c2=O)cc1` [Compound 48], the MIC [1, 7] is reported as > 25 µg/mL, the MIC [2, 14] is reported as ≥ 31.2 µg/mL and the MIC [3] is reported as > 25 µg/mL. The MIC [4, 11] was ≥ 31.2 µg/mL, the MIC [5, 15] was ≥ 31.2 µg/mL and the MIC [6, 13] was ≥ 31.2 µg/mL.
